Measurements published in patent US20100197789A1, “ANTI-OBESITY AGENT AND USE THEREOF” (National University Corporation Nagoya University, priority 2006, published 2010).

Key:
Assay type in all cases: in vivo, mouse
DIO mice = experiment: Rectal temperature, oxygen consumption and motor activity, DIO mice
Protocol: (±)-baclofen was orally administered to db/db mice and DIO mice for 5 weeks and rectal temperatures were measured 5 weeks after the start of the administration, and oxygen consumptions and motor activity were measured by using a small animal metabolism measuring system (model MK-5000: Muromachi Kikai Co., Ltd.).

NPY mRNA = experiment: In situ hybridization, NPY mRNA in hypothalamic arcuate nucleus, db/db mice; conditions: after 5 weeks, 1.1 and 2.7 mg/dl in drinking water, NIH image quantitation
Protocol: (§1) 5 week-old male C57BL/KsJ-db/db mice (db/db mice: body weight 19 to 25 g, Japan SLC, Inc.) were purchased and individually fed in tip cages. For the db/db mice, normal pellet diet (CE-2) was administered under free water intake and free food intake. A body weight and a food intake amount over 24 hours were measured every day from the start of feeding. On day 3 after the start of feeding, blood was taken from an orbit after 6 hour-fasting and a blood glucose level and a blood insulin concentration were measured. The db/db mice were divided into three groups (10 mice per each group) so that a body weight, a 24 hour-food intake amount, a blood glucose level, and a blood insulin concentration were equal, and defined to be a control group, a low concentration baclofen treated group, and a high concentration baclofen treated group. […] A food intake amount and a body weight were measured over time during the period of 5 week-administration of (±)-baclofen, blood was taken after the end of the 5-week administration, and the db/db mice were sacrificed by cervical luxation. […] The epididymal white adipose tissues and subcutaneous white adipose tissues were measured in weights, and then fixed in 4% formaldehyde and preserved at 4° C. […]

db/db mice = experiment: Histological study of adipose tissue (weights, fat cell size), db/db mice; conditions: after 5 week-administration, 1.1 and 2.7 mg/dl in drinking water
Protocol: 5 week-old male C57BL/KsJ-db/db mice (db/db mice: body weight 19 to 25 g, Japan SLC, Inc.) were purchased and individually fed in tip cages. For the db/db mice, normal pellet diet (CE-2) was administered under free water intake and free food intake. A body weight and a food intake amount over 24 hours were measured every day from the start of feeding. On day 3 after the start of feeding, blood was taken from an orbit after 6 hour-fasting and a blood glucose level and a blood insulin concentration were measured. The db/db mice were divided into three groups (10 mice per each group) so that a body weight, a 24 hour-food intake amount, a blood glucose level, and a blood insulin concentration were equal, and defined to be a control group, a low concentration baclofen treated group, and a high concentration baclofen treated group. After division into the groups, from day 5 after the start of feeding, (±)-baclofen was dissolved in drinking water and 5 week-continuous oral administration to the baclofen treated groups was started. (±)-baclofen was dissolved in drinking water at a concentration of 1.1 mg/dl in the low concentration treated group and at a concentration of 2.7 mg/dl in the high concentration treated group. A food intake amount and a body weight were measured over time during the period of 5 week-administration of (±)-baclofen, blood was taken after the end of the 5-week administration, and the db/db mice were sacrificed by cervical luxation. Brains, epididymal white adipose tissues, subcutaneous white adipose tissues and brown adipose tissues were surgically removed. The brains and brown adipose tissues were frozen in dry ice and liquid nitrogen immediately after the removal and then preserved at −80° C. The epididymal white adipose tissues and subcutaneous white adipose tissues were measured in weights, and then fixed in 4% formaldehyde and preserved at 4° C. […]

lean mice = experiment: Food intake amount and body weight, 5 week-continuous oral administration, non-obese lean mice; conditions: lean mice (normal diet); oral 5 weeks; (±)-baclofen 5 mg/kg/day, SKF97541 0.3 mg/kg/day, 3-APPA 5 mg/kg/day
Protocol: 5 week-old male C57BL/6N mice (body weight 17 to 20 g, CLEA Japan, Inc.) were purchased and individually fed in tip cages. To the mice, normal pellet diet (CE-2) was administered under free water intake and free food intake. A body weight and a food intake amount over 24 hours were measured every day from the start of feeding. On day 3 after the start of feeding, blood was taken from an orbit after 6 hour-fasting and a blood glucose level and a blood insulin concentration were measured. The mice were divided into a control group and a baclofen treated group (10 mice per each group) so that a body weight, a 24 hour-food intake amount, a blood glucose level, and a blood insulin concentration were equal, and diet induced-obesity (DIO) was started to be induced by administration of high fat diet (High Fat Diet 32, energy fat ratio 60%, CLEA Japan, Inc.) (DIO mice). At the same time as the start of administering the high fat diet, (±)-baclofen was dissolved in drinking water and 5 week-continuous oral administration was started in a dosage of 5 mg per 1 kg of a body weight in 1 day (5 mg/kg/day). A food intake amount and a body weight were measured over time during the 5 week-administration period. (±)-baclofen (5 mg/kg/day) was orally administered also to C57BL/6N mice (lean mice) that are non-obese mice to which normal diet was administered in the same manner as described above, and a food intake amount and a body weight were measured over time.
5 week-old male C57BL/6N mice (body weight 17 to 20 g, CLEA Japan, Inc.) were purchased and individually fed in tip cages. Normal pellet diet (CE-2) was administered to the mice under free water intake and free food intake. A body weight and a food intake amount over 24 hours were measured every day from the start of feeding. On day 3 after the start of feeding, blood was taken from an orbit after 6 hour-fasting and a blood glucose level and a blood insulin concentration were measured. The mice were divided into a control group, an SKF97541 treated group and a 3-APPA treated group (10 mice per each group) so that a body weight, a 24 hour-food intake amount, a blood glucose level, and a blood insulin concentration were equal, and diet induced-obesity (DIO) was started to be induced by administration of high fat diet (High Fat Diet 32, energy fat ratio 60%, CLEA Japan, Inc.) (DIO mice). At the same time as the start of administering the high fat diet, SKF97541 (0.3 mg/kg/day) or 3-APPA (5 mg/kg/day) was dissolved in drinking water and 5 week-continuous oral administration was started. A food intake amount and a body weight were measured over time during the 5 week-administration period. SKF97541 (0.3 mg/kg/day) or 3-APPA (5 mg/kg/day) was orally administered also to C57BL/6N mice (lean mice) to which normal diet was administered in the same manner as described above, and a food intake amount and a body weight were measured over time.

POMC mRNA = experiment: In situ hybridization, POMC mRNA in hypothalamic arcuate nucleus, db/db mice; conditions: after 5 weeks, 1.1 and 2.7 mg/dl in drinking water, NIH image quantitation
Protocol: as §1

UCP1 mRNA = experiment: Real time PCR, UCP1 mRNA in brown adipose tissues, db/db mice; conditions: after 5 week-administration, 1.1 and 2.7 mg/dl in drinking water
Protocol: 5 week-old male C57BL/KsJ-db/db mice (db/db mice: body weight 19 to 25 g, Japan SLC, Inc.) were purchased and individually fed in tip cages. For the db/db mice, normal pellet diet (CE-2) was administered under free water intake and free food intake. A body weight and a food intake amount over 24 hours were measured every day from the start of feeding. On day 3 after the start of feeding, blood was taken from an orbit after 6 hour-fasting and a blood glucose level and a blood insulin concentration were measured. […] A food intake amount and a body weight were measured over time during the period of 5 week-administration of (±)-baclofen, blood was taken after the end of the 5-week administration, and the db/db mice were sacrificed by cervical luxation. […] The epididymal white adipose tissues and subcutaneous white adipose tissues were measured in weights, and then fixed in 4% formaldehyde and preserved at 4° C.
RNA was taken out from the brown adipose tissues preserved at −80° C., and expression of a UCP-1 mRNA was examined in the real time quantitative […] method by using ABI PRISM (registered trademark) 7700 Sequence Detection System.

`NCC(CC(=O)O)c1ccc(Cl)cc1` (racemic) [(±)-baclofen, (RS)-4-amino-3-(4-chlorophenyl)butanoic acid] was tested, and the oxygen consumption (DIO mice; (±)-baclofen oral 5 weeks) was “significantly increased”, the “body temperature (rectal)” value (DIO mice; (±)-baclofen oral, 5 weeks after start of administration) was “significantly raised” and the “expression of NPY mRNA in the hypothalamic arcuate nucleus” value (NPY mRNA) was “significantly suppressed”. For the same molecule, the “size of a fat cell (epididymal white adipose tissue, H-E stain)” value (db/db mice) was “decreases”, the “weight of epididymal white adipose tissues” value (db/db mice) was “Significant decreases” and the “weight of subcutaneous white adipose tissue” value (db/db mice) was “no significant decrease”. For the same molecule, the body weight (lean mice) was “did not give significant effects”, the food intake amount (lean mice) was “did not give significant effects” and the “expression of POMC mRNA in the hypothalamic arcuate nucleus” value (POMC mRNA) was “significantly enhanced”. For the same molecule, the “UCP1 mRNA expression in brown adipose tissues” value (UCP1 mRNA) was “Significant increases”.
